Active and inactive are the calls of the source. The rule behind the calls is not given here.
Legend:
[1] = target: Inhibitor of nuclear factor kappa-B kinase subunit beta (Homo sapiens) (UniProt O14920); assay: Inhibition of IKK-beta (unknown origin) assessed as remaining activity at 1 uM by Kinome scan method relative to control
CYP2C9 = CYP2C9 (Homo sapiens, UniProt P11712); assay: Inhibition of CYP2C9 (unknown origin) at 10 uM relative to control; type: ADME
PBMC = assay: Anti-inflammatory activity against human derived high respond PBMC cells assessed as increase in stimulated IL-12p70 cytokine release at 1 uM incubated for 2 hrs in the presence of LPS/SEB/aCD28 by Luminex based sandwich immunoassay; type: functional, cell-based
[2] = target: Serine/threonine-protein kinase SIK2 (Homo sapiens) (UniProt Q9H0K1); assay: Inhibition of human SNF1LK2 assessed as residual activity at 1 uM using RBER-CHKtide as substrate in presence of 33P-ATP by ProQinase assay relative to control
[3] = target: MAP kinase-interacting serine/threonine-protein kinase 2 (Homo sapiens) (UniProt Q9HBH9); assay: Inhibition of human MKNK2 assessed as residual activity at 1 uM using RB-S6P as substrate in presence of 33P-ATP by ProQinase assay relative to control
[4] = Anti-inflammatory activity against human derived high respond PBMC cells assessed as inhibition in stimulated IL-13 cytokine release incubated for 2 hrs in the presence of LPS/SEB/aCD28 by Luminex based sandwich immunoassay; type: functional, cell-based
[5] = target: Mitogen-activated protein kinase 10 (Homo sapiens) (UniProt P53779); assay: Inhibition of human JNK3 assessed as residual activity at 1 uM using ATF2 as substrate in presence of 33P-ATP by ProQinase assay relative to control
[6] = target: Serine/threonine-protein kinase Nek9 (Homo sapiens) (UniProt Q8TD19); assay: Inhibition of NEK9 (unknown origin) assessed as remaining activity at 1 uM by Kinome scan method relative to control
[7] = target: G protein-coupled receptor kinase 4 (Homo sapiens) (UniProt P32298); assay: Inhibition of human GRK4 assessed as residual activity at 1 uM using casein as substrate in presence of 33P-ATP by ProQinase assay relative to control
[8] = target: Rho-associated protein kinase 1 (Homo sapiens) (UniProt Q13464); assay: Inhibition of ROCK1 (unknown origin) assessed as remaining activity at 1 uM by Kinome scan method relative to control
Sequence of Rho-associated protein kinase 1 (Homo sapiens) (Q13464 2-1354 limits assumed): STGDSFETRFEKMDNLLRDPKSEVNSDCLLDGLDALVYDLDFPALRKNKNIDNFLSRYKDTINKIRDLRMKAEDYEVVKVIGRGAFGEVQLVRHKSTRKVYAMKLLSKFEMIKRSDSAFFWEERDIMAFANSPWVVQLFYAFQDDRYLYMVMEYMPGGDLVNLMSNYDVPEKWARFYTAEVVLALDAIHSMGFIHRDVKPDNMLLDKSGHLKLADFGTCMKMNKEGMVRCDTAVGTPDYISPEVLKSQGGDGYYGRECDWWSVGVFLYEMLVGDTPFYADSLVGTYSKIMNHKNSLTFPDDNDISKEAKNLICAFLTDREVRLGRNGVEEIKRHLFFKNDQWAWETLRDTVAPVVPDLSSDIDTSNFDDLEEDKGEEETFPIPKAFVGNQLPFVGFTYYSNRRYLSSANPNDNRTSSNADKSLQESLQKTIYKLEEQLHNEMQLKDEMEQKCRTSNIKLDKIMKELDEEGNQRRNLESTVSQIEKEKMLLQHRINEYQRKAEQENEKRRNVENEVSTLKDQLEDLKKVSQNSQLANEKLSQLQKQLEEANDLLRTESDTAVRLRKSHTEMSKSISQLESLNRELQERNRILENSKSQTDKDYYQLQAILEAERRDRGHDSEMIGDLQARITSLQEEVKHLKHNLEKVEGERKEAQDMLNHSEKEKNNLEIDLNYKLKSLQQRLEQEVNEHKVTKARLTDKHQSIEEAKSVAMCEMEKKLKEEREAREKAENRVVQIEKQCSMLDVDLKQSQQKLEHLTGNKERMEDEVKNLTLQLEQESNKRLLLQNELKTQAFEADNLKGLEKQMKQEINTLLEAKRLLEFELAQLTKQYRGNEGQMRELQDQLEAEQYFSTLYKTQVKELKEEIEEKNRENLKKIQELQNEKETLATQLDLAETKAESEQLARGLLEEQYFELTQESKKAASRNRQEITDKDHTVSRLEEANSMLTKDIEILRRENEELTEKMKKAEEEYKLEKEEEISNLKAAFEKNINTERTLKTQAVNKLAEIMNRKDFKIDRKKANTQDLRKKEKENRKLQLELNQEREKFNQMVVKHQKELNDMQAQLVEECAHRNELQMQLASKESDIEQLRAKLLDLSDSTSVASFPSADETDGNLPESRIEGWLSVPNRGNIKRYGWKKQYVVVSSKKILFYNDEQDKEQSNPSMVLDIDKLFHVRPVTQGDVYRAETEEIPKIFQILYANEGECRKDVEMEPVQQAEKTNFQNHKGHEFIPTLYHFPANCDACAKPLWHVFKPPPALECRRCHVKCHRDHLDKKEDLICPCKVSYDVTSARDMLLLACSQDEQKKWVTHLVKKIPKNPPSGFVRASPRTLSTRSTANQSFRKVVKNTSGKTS

[9] = target: Receptor-interacting serine/threonine-protein kinase 2 (Homo sapiens) (UniProt O43353); assay: Inhibition of RIPK2 (unknown origin) assessed as remaining activity at 1 uM by Kinome scan method relative to control
[10] = target: Mast/stem cell growth factor receptor Kit (Homo sapiens) (UniProt P10721); assay: Inhibition of human KIT assessed as residual activity at 1 uM using polyEY as substrate in presence of 33P-ATP by ProQinase assay relative to control
Sequence of Mast/stem cell growth factor receptor Kit (Homo sapiens) (P10721 whole entry): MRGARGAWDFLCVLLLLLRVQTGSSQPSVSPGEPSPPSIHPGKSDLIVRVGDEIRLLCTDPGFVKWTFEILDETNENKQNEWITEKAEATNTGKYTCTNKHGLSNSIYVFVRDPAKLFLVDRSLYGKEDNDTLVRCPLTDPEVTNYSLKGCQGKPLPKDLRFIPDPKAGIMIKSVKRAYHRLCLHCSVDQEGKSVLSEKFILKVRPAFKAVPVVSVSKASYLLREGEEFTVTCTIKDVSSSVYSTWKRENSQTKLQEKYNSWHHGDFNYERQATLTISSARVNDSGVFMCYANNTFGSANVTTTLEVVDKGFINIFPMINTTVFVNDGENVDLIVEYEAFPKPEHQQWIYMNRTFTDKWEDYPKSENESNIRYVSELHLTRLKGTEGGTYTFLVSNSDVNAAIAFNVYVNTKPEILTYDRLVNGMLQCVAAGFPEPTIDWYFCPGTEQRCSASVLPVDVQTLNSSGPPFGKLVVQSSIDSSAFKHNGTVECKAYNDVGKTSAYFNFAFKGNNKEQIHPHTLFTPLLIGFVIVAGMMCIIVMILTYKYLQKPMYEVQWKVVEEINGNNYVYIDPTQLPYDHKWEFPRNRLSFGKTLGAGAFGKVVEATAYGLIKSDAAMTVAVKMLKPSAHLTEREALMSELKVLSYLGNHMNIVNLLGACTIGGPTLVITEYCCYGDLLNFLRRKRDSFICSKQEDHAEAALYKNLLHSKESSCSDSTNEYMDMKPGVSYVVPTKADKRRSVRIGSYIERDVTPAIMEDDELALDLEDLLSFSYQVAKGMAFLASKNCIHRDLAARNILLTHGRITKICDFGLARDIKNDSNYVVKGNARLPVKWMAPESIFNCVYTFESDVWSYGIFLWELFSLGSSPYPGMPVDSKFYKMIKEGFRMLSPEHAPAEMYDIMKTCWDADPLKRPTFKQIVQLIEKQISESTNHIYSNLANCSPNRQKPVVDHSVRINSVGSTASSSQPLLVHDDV

[11] = target: Serine/threonine-protein kinase PAK 1 (Homo sapiens) (UniProt Q13153); assay: Inhibition of human PAK1 assessed as residual activity at 1 uM using bio-4xCHKT as substrate in presence of 33P-ATP by ProQinase assay relative to control
[12] = target: Bone morphogenetic protein receptor type-2 (Homo sapiens) (UniProt Q13873); assay: Inhibition of BMPR2 (unknown origin) assessed as remaining activity at 1 uM by Kinome scan method relative to control
[13] = target: Non-receptor tyrosine-protein kinase TYK2 (Homo sapiens) (UniProt P29597); assay: Inhibition of TYK2 JH2 domain (unknown origin) assessed as remaining activity at 1 uM by Kinome scan method relative to control
Sequence of Non-receptor tyrosine-protein kinase TYK2 (Homo sapiens) (P29597 whole entry, the tested form may be a part): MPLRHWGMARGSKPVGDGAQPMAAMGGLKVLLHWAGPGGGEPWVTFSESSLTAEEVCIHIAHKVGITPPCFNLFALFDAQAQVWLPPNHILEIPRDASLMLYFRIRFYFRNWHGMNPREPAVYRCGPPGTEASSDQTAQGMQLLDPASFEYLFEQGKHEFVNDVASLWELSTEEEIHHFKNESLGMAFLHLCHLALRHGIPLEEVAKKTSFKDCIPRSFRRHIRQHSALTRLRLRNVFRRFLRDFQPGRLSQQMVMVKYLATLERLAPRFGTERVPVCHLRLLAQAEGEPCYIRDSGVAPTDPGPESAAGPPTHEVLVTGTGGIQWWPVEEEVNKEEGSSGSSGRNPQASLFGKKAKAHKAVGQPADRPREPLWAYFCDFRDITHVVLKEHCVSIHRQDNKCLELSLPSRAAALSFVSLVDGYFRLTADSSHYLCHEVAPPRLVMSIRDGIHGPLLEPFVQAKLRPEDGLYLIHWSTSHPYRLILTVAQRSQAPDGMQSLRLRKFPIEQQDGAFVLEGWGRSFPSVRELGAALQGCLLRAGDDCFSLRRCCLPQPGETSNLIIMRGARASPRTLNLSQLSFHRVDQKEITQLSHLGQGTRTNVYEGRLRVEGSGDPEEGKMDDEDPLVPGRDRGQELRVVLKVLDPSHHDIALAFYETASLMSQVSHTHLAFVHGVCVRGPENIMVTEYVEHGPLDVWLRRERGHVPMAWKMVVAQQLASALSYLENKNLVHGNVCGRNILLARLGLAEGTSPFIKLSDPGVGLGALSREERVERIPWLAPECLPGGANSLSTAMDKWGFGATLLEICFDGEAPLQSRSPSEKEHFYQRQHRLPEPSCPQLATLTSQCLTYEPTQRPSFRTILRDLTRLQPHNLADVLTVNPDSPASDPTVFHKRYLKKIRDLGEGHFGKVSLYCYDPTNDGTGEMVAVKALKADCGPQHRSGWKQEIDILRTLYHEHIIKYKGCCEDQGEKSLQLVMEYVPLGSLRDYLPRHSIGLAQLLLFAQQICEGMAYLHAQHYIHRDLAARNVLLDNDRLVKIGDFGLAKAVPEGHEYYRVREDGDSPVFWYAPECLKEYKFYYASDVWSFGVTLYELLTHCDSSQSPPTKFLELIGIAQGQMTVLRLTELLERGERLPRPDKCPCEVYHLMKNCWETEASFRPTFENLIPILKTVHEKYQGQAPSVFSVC

[14] = target: Calcium/calmodulin-dependent protein kinase kinase 1 (Homo sapiens) (UniProt Q8N5S9); assay: Inhibition of human CAMKK1 assessed as residual activity at 1 uM using RB-CTF as substrate in presence of 33P-ATP by ProQinase assay relative to control
Sequence of Calcium/calmodulin-dependent protein kinase kinase 1 (Homo sapiens) (Q8N5S9 whole entry, looked up, the tested form may be a part): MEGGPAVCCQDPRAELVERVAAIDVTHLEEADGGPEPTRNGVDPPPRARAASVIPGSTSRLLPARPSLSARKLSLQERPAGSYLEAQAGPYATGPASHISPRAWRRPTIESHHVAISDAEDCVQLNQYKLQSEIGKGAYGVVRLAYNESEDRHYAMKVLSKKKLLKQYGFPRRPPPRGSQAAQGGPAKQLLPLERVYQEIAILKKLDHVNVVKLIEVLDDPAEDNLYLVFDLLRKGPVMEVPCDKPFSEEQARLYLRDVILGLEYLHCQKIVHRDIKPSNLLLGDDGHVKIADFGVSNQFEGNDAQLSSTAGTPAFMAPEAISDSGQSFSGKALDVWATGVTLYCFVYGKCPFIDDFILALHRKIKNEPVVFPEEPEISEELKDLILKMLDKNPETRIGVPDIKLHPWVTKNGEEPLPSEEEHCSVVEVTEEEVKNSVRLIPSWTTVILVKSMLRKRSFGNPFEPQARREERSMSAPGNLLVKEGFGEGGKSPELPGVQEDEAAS

[15] = target: Discoidin domain-containing receptor 2 (Homo sapiens) (UniProt Q16832); assay: Inhibition of DDR2 (unknown origin) assessed as remaining activity at 1 uM by Kinome scan method relative to control
Sequence of Discoidin domain-containing receptor 2 (Homo sapiens) (Q16832 whole entry, the tested form may be a part): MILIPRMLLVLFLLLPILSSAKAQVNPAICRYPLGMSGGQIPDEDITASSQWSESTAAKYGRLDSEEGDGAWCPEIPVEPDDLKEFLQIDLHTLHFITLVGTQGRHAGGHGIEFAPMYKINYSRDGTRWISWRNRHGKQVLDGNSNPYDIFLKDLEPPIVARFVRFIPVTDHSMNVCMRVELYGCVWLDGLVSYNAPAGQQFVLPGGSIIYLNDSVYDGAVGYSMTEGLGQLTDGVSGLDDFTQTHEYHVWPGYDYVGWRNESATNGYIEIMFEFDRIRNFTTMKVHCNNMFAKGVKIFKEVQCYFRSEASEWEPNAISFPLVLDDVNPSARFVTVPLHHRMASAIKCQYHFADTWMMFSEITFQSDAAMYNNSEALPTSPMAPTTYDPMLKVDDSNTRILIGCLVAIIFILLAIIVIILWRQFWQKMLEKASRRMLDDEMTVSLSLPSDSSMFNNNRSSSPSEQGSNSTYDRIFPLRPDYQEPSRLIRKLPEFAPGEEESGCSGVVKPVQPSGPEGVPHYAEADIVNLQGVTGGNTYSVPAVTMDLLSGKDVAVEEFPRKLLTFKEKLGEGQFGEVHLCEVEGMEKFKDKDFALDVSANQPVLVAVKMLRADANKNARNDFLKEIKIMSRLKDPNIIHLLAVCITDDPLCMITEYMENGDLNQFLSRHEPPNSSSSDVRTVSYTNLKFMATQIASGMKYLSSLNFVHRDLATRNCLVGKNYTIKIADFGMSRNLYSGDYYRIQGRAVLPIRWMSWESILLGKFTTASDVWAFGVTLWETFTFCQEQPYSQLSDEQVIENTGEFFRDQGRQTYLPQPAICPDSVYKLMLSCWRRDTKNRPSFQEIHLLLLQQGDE

[16] = target: T1, Tyrosine-protein kinase TXK (Homo sapiens) (UniProt P42681); assay: Inhibition of human TXK assessed as residual activity at 1 uM using RBER-CHKtide as substrate in presence of 33P-ATP by ProQinase assay relative to control
T1 sequence (whole entry): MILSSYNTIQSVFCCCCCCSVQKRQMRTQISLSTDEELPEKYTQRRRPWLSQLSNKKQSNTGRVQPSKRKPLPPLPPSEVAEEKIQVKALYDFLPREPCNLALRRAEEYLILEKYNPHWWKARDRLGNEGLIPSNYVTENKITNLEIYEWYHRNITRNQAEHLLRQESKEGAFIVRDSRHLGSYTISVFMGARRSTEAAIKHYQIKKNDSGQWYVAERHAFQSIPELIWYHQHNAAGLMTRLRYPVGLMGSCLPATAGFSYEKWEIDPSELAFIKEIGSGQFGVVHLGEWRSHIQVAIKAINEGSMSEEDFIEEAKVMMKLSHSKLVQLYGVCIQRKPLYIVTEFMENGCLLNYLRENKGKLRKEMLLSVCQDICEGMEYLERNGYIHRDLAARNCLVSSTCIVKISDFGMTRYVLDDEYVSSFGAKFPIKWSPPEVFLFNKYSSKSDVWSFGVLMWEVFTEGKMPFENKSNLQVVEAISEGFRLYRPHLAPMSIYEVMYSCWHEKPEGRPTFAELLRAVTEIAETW

[17] = target: Mitogen-activated protein kinase 1 (Homo sapiens) (UniProt P28482); assay: Inhibition of human ERK2 assessed as residual activity at 1 uM using RBER-CHKtide as substrate in presence of 33P-ATP by ProQinase assay relative to control
[18] = target: Macrophage-stimulating protein receptor (Homo sapiens) (UniProt Q04912); assay: Inhibition of human RON assessed as residual activity at 1 uM using polyEY as substrate in presence of 33P-ATP by ProQinase assay relative to control
[19] = target: Serine/threonine-protein kinase 25 (Homo sapiens) (UniProt O00506); assay: Inhibition of human STK25 assessed as residual activity at 1 uM using casein as substrate in presence of 33P-ATP by ProQinase assay relative to control
[20] = target: Insulin receptor (Homo sapiens) (UniProt P06213); assay: Inhibition of human INSR assessed as residual activity at 1 uM using poly(Ala,Glu,Lys,Tyr)6:2:5:1 as substrate in presence of 33P-ATP by ProQinase assay relative to control
[21] = test system: Hepatocyte growth factor receptor (Homo sapiens), P08581 [D1228H]; assay: Inhibition of human MET D1228H mutant assessed as residual activity at 1 uM using poly(Ala,Glu,Lys,Tyr)6:2:5:1 as substrate in presence of 33P-ATP by ProQinase assay relative to control
[22] = target: Calcium/calmodulin-dependent protein kinase type 1G (Homo sapiens) (UniProt Q96NX5); assay: Inhibition of CAMK1G (unknown origin) assessed as remaining activity at 1 uM by Kinome scan method relative to control

## O=C1c2ccc(Nc3ccc(F)cc3F)cc2CCc2ccc(OC[C@H](O)CO)cc21 [Skepinone-L]
[1]
  Activity: 100%
CYP2C9
  inhibition at 10 µM: 65%
PBMC
  Activity: Active
[2]
  Activity: 86%
[3]
  Activity: 96%
[4]
  IC50: 1940 nM
[5]
  Activity: 33%
[6]
  Activity: 89%
[7]
  Activity: 100%
[8]
  Activity: 100%
[9]
  Activity: 87%
[10]
  Activity: 111%
[11]
  Activity: 100%
[12]
  Activity: 100%
[13]
  Activity: 100%
[14]
  Activity: 83%
[15]
  Activity: 100%
[16]
  Activity: 93%
[17]
  Activity: 83%
[18]
  Activity: 56%
[19]
  Activity: 100%
[20]
  Activity: 101%
[21]
  Activity: 97%
[22]
  Activity: 96%

Reference: ChEMBL document CHEMBL5696441 (Nat Chem Biol, 2011)
